{
  "source": "patent US9221864B2",
  "about": "“Tricyclic nucleic acid analogs” (Isis Pharmaceuticals, Inc., priority 2012, dated 2015)",
  "assay_type_in_all_cases": "binding",
  "key": {"[1]": {"test_system": "matched DNA complement 5′-d(AGCAAAXAACGC)-3′, X=A", "experiment": "Thermal stability (Tm) of 12mer oligomeric compounds duplexed to matched DNA complement", "details": "relative to unmodified DNA 12mer ISIS 438705; 1.2 μM, 10 mM sodium phosphate buffer pH 7.2, 100 mM NaCl, 0.1 mM EDTA", "experimental": "(§1) The oligomeric compounds in Table 1 were evaluated for thermal stability (Tm) using the method described herein. The Tm of the modified 12mer oligomeric compounds were compared to an unmodified 12mer DNA oligonucleotide when duplexed to either the matched or mismatched RNA complement.\n(§2) Tm's were determined using a Cary 100 Bio spectrophotometer with the Cary Win UV thermal program was used to measure absorbance vs. temperature. For the Tm experiments, the oligomeric compounds were prepared at a concentration of 1.2 μM in 10 mM sodium phosphate buffer (pH 7.2) containing 100 mM NaCl and 0.1 mM EDTA. The concentrations, determined at 85° C. was 1.2 μM after mixing of equal volumes of selected oligomeric compound and complementary matched or mismatched RNA. The oligomeric compounds were hybridized with a complimentary matched or mismatched RNA by heating the duplex to 90° C. for 5 minutes and then cooling to room temperature. Tm measurements were taken using a spectrophotometer while the duplex solution was heated in a cuvette at a rate of 0.5° C./min starting at 15° C. until the temperature was 85° C. Tm values were determined using Vant Hoff calculations (A260 vs temperature curve) using non self-complementary sequences where the minimum absorbance related to the duplex and the maximum absorbance related to the non-duplex single strand are manually integrated into the program. Mismatched thermal stability was also measured and calculated by subtracting values of Tm measured vs the mismatched RNA complement from values of Tm vs the matched RNA complement for each modification.\n(§3) The sequence for matched DNA complement is designated herein as SEQ ID No.: 6, 5′-d(AGCAAAXAACGC)-3′, wherein X=A. The sequence for matched RNA complement is designated herein as SEQ ID No.: 6, 5′-r(AGCAAAYAACGC)-3′, wherein Y=A. The mismatched RNA complement sequence is designated herein as SEQ ID No.: 7, 5′-r(AGCAAAZAACGC)-3′, wherein Z=G, C or U."}, "[2]": {"test_system": "matched RNA complement 5′-r(AGCAAAYAACGC)-3′, Y=A", "experiment": "Thermal stability (Tm) of 12mer oligomeric compounds duplexed to matched RNA complement", "details": "relative to unmodified DNA 12mer ISIS 438705; 1.2 μM, 10 mM sodium phosphate buffer pH 7.2, 100 mM NaCl, 0.1 mM EDTA", "experimental": "as §1, §2, §3"}, "[3]": {"test_system": "mismatched RNA complement 5′-r(AGCAAAZAACGC)-3′, Z=C", "experiment": "Mismatch discrimination (Tm) vs mismatched RNA complement, Z=C", "details": "1.2 μM, 10 mM sodium phosphate buffer pH 7.2, 100 mM NaCl, 0.1 mM EDTA", "experimental": "as §1\nas §2, with “Mismatched thermal stability was also measured and calculated by subtracting values of Tm measured vs the mismatched RNA complement from values of Tm vs the matched RNA complement for each modification.” left out\nas §3"}, "[4]": {"test_system": "mismatched RNA complement 5′-r(AGCAAAZAACGC)-3′, Z=U", "experiment": "Mismatch discrimination (Tm) vs mismatched RNA complement, Z=U", "details": "1.2 μM, 10 mM sodium phosphate buffer pH 7.2, 100 mM NaCl, 0.1 mM EDTA", "experimental": "as §1\nas §2, with “Mismatched thermal stability was also measured and calculated by subtracting values of Tm measured vs the mismatched RNA complement from values of Tm vs the matched RNA complement for each modification.” left out\nas §3"}, "[5]": {"test_system": "mismatched RNA complement 5′-r(AGCAAAZAACGC)-3′, Z=G", "experiment": "Mismatch discrimination (Tm) vs mismatched RNA complement, Z=G", "details": "1.2 μM, 10 mM sodium phosphate buffer pH 7.2, 100 mM NaCl, 0.1 mM EDTA", "experimental": "as §1, §2, §3"}},
  "data": [
    {"substance": "A01: 12mer GCGTTTbTTTGCT with one α-L-TriNA (α-L-tricyclic nucleic acid) nucleoside, phosphodiester linkages, SEQ ID No. 5 (DNA GCGTTT_{b}TTTGCT; as printed in the source, key not given here) [Compound A01]", "values": [
      {"measurement": "ΔTm/mod vs DNA, Matched, X = A", "setting": "[1]", "value": "+2.6 °C"},
      {"measurement": "ΔTm/mod vs RNA, Matched, Y = A", "setting": "[2]", "value": "+7.1 °C"},
      {"measurement": "ΔTm/mod vs RNA, Mismatched, Z = C; Mismatched Discrimination [Tm(mismatched) − Tm(matched)]", "setting": "[3]", "value": "−16.7", "unit": "°C"},
      {"measurement": "ΔTm/mod vs RNA, Mismatched, Z = U; Mismatched Discrimination [Tm(mismatched) − Tm(matched)]", "setting": "[4]", "value": "−17.0", "unit": "°C"},
      {"measurement": "ΔTm/mod vs RNA, Mismatched, Z = G; Mismatched Discrimination [Tm(mismatched) − Tm(matched)]", "setting": "[5]", "value": "−5.5", "unit": "°C"}
    ]},
    {"substance": "ISIS 438707: 12mer GCGTTT1TTTGCT with one LNA nucleoside, phosphodiester linkages, SEQ ID No. 5 (DNA GCGTTT_{1}TTTGCT; as printed in the source, key not given here)", "values": [
      {"measurement": "ΔTm/mod vs DNA, Matched, X = A", "setting": "[1]", "value": "+1.7 °C"},
      {"measurement": "ΔTm/mod vs RNA, Matched, Y = A", "setting": "[2]", "value": "+5.5 °C"},
      {"measurement": "ΔTm/mod vs RNA, Mismatched, Z = C; Mismatched Discrimination [Tm(mismatched) − Tm(matched)]", "setting": "[3]", "value": "−15.4", "unit": "°C"},
      {"measurement": "ΔTm/mod vs RNA, Mismatched, Z = U; Mismatched Discrimination [Tm(mismatched) − Tm(matched)]", "setting": "[4]", "value": "−13.7", "unit": "°C"},
      {"measurement": "ΔTm/mod vs RNA, Mismatched, Z = G; Mismatched Discrimination [Tm(mismatched) − Tm(matched)]", "setting": "[5]", "value": "−5.4", "unit": "°C"}
    ]},
    {"substance": "ISIS 438705: unmodified 12mer DNA GCGTTTTTTGCT, phosphodiester linkages, SEQ ID No. 5, purchased from commercial sources (unmodified DNA)", "values": [
      {"measurement": "ΔTm/mod vs DNA, Matched, X = A", "setting": "[1]", "value": "0 (ref) ° C."},
      {"measurement": "ΔTm/mod vs RNA, Matched, Y = A", "setting": "[2]", "value": "0 (ref) ° C."},
      {"measurement": "ΔTm/mod vs RNA, Mismatched, Z = C; Mismatched Discrimination [Tm(mismatched) − Tm(matched)]", "setting": "[3]", "value": "−13.0", "unit": "°C"},
      {"measurement": "ΔTm/mod vs RNA, Mismatched, Z = U; Mismatched Discrimination [Tm(mismatched) − Tm(matched)]", "setting": "[4]", "value": "−13.2", "unit": "°C"},
      {"measurement": "ΔTm/mod vs RNA, Mismatched, Z = G; Mismatched Discrimination [Tm(mismatched) − Tm(matched)]", "setting": "[5]", "value": "−4.1", "unit": "°C"}
    ]},
    {"substance": "ISIS 560180: 12mer GCGTTTaTTTGCT with one α-L-LNA nucleoside, phosphodiester linkages, SEQ ID No. 5 (DNA GCGTTT_{a}TTTGCT; as printed in the source, key not given here)", "values": [
      {"measurement": "ΔTm/mod vs DNA, Matched, X = A", "setting": "[1]", "value": "+1.4 °C"},
      {"measurement": "ΔTm/mod vs RNA, Matched, Y = A", "setting": "[2]", "value": "+5.7 °C"},
      {"measurement": "ΔTm/mod vs RNA, Mismatched, Z = C; Mismatched Discrimination [Tm(mismatched) − Tm(matched)]", "setting": "[3]", "value": "−14.8", "unit": "°C"},
      {"measurement": "ΔTm/mod vs RNA, Mismatched, Z = U; Mismatched Discrimination [Tm(mismatched) − Tm(matched)]", "setting": "[4]", "value": "−13.5", "unit": "°C"},
      {"measurement": "ΔTm/mod vs RNA, Mismatched, Z = G; Mismatched Discrimination [Tm(mismatched) − Tm(matched)]", "setting": "[5]", "value": "−4.7", "unit": "°C"}
    ]}
  ]
}
